Reference: US12441727B2, “Tricyclic compounds as inhibitors of KRAS” (Incyte Corporation, priority 2021, dated 2025)
Read-outs that look alike come from different tables or passages of the source.

What was measured:
KRAS_G12C pERK = assay: Cellular pERK HTRF assay (KRAS_G12C pERK assay); assay type: cell-based, human; details: KRAS G12C cells, 4 hours incubation with compound, read-out: G12C_pERK
Description: MIA PaCa-2 (KRAS G12C; ATCC® CRL-1420), NCI-H358 (KRAS G12C; ATCC® CRL-5807), A427 (KRAS G12D; ATCC® HTB53), HPAFII (KRAS G12D; ATCC® CRL-1997), YAPC (KRAS G12V; DSMZ ACC382), SW480 (KRAS G12V; ATCC® CRL-228) and NCI-H838 (KRAS WT; ATCC® CRL-5844) cells are purchased from ATCC and maintained in RPMI 1640 media supplemented with 10% FBS (Gibco/Life Technologies). The cells are plated at 5000 cells per well (8 uL) into Greiner 384-well low volume, flat-bottom, and tissue culture treated white plates and incubated overnight at […], 5% CO2. The next morning, test compound stock solutions are diluted in media at 3× the final concentration and 4 uL are added to the cells, with a final concentration of 0.1% of DMSO. The cells are incubated with the test compounds for 4 hours (G12C and G12V) or 2 hrs (G12D) at 37° C., 5% CO2. Four uL of 4× lysis buffer with blocking reagent (Cisbio) are added to each well and plates are rotated gently (300 rpm) for 30 minutes at room temperature. Four uL per well of Cisbio anti Phospho-ERK 1/2 d2 is mixed with anti Phospho-ERK 1/2 Cryptate (1:1), and added to each well, incubated overnight in the dark at room temperature. Plates are read on the Pherastar plate reader at 665 nm and 620 nm wavelengths. Data are analyzed in Genedata Screener using SmartFit for IC50 values.

[1] = test system: KRAS_G12C pERK in MIA PaCa-2 cells; assay: Whole Blood pERK1/2 HTRF assay (KRAS_G12C WB pERK assay); assay type: cell-based, human; details: compound in whole blood, 4 hours, read-out: G12C_WB_pERK
Description: MIA PaCa-2 cells (KRAS G12C; ATCC® CRL-1420), HPAF-II (KRAS G12D; ATCC® CRL-1997) and YAPC (KRAS G12V; DSMZ ACC382) are maintained in RPMI 1640 with 10% FBS (Gibco/Life Technologies). For MIA PaCa-2 assay, cells are seeded into 96 well tissue culture plates (Corning #3596) at 25000 cells per well in 100 uL media and cultured for 2 days at 37° C., 5% CO2 before the assay. For HPAF-II and YAPC assay, cells are seeded in 96 well tissue culture plates at 50000 cells per well in 100 uL media and cultured for 1 day before the assay. Whole Blood are added to the 1 uL dots of compounds (prepared in DMSO) in 96 well plates and mixed gently by pipetting up and down so that the concentration of the compound in blood is 1× of desired concentration, in 0.5% DMSO. The media is aspirated from the cells and 50 uL per well of whole blood with test compound is added and incubated for 4 hours for MIA PaCa and YAPC assay; or 2 hours for HPAF-II assay, respectively at 37° C., 5% CO2. After dumping the blood, the plates are gently washed twice by adding PBS to the side of the wells and dumping the PBS from the plate onto a paper towel, tapping the plate to drain well. Fifty ul/well of 1× lysis buffer #1 (Cisbio) with blocking reagent (Cisbio) and Benzonase nuclease (Sigma Cat #E1014-5KU, 1:10000 final concentration) is then added and incubated at room temperature for 30 minutes with shaking (250 rpm). Following lysis, 16 uL of lysate is transferred into 384-well Greiner small volume white plate using an Assist Plus (Integra Biosciences, NH). Four uL of 1:1 mixture of anti Phospho-ERK 1/2 d2 and anti Phospho-ERK 1/2 Cryptate (Cisbio) is added to the wells using the Assist Plus and incubated at room temperature overnight in the dark. Plates are read on the Pherastar plate reader at 665 nm and 620 nm wavelengths. Data are analyzed in Genedata Screener using SmartFit for IC50 values.

KRAS G12C = KRAS G12C (Homo sapiens, UniProt P01116, G12C); assay: GDP-GTP exchange assay (KRAS_G12C exchange assay); assay type: biochemical; details: bodipy-loaded KRAS G12C 2.5 nM, SOS1 150 nM, 2 hours pre-incubation with inhibitor; read-out: G12C_exchange
Sequence of KRAS G12C (P01116 1-188 isoform P01116-2 G12C): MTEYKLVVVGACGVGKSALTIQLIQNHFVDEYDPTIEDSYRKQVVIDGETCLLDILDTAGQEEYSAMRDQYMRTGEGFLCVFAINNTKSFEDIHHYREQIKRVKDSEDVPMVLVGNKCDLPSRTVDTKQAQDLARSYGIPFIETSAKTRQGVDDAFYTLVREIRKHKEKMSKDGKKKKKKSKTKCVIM
Description: The inhibitor potency of the exemplified compounds was determined in a fluorescence based guanine nucleotide exchange assay, which measures the exchange of bodipy-GDP (fluorescently labeled GDP) for GppNHp (Non-hydrolyzable GTP analog) to generate the active state of KRAS in the presence of SOS1 (guanine nucleotide exchange factor). Inhibitors were serially diluted in DMSO and a volume of 0.1 μL was transferred to the wells of a black low volume 384-well plate. 5 μL/well volume of bodipy-loaded KRAS G12C diluted to 5 nM in assay buffer (25 mM Hepes pH 7.5, 50 mM NaCl, 10 mM MgCl2 and 0.01% Brij-35) was added to the plate and pre-incubated with inhibitor for 2 hours at ambient temperature. Appropriate controls (enzyme with no inhibitor or with a G12C inhibitor (AMG-510)) were included on the plate. The exchange was initiated by the addition of a 5 μL/well volume containing 1 mM GppNHp and 300 nM SOS1 in assay buffer. The 10 μL/well reaction concentration of the bodipy-loaded KRAS G12C, GppNHp, and SOS1 were 2.5 nM, 500 uM, and 150 nM, respectively. The reaction plates were incubated at ambient temperature for 2 hours, a time estimated for complete GDP-GTP exchange in the absence of inhibitor. For the KRAS G12D and G12V mutants, similar guanine nucleotide exchange assays were used with 2.5 nM as final concentration for the bodipy loaded KRAS proteins and with 4 hours and 3 hours incubation after adding GppNHp-SOS1 mixture for G12D and G12V respectively. A cyclic peptide described to selectively bind G12D mutant (Sakamoto et al., BBRC 484.3 (2017), 605-611) or internal compounds with confirmed binding were used as positive controls in the assay plates. Fluorescence intensities were measured on a PheraStar plate reader instrument (BMG Labtech) with excitation at 485 nm and emission at 520 nm.
Either GraphPad prism or Genedata Screener SmartFit was used to analyze the data. The IC50 values were derived by fitting the data to a four parameter logistic equation producing a sigmoidal dose-response curve with a variable Hill coefficient.

[2] = Human whole blood stability; assay type: in vitro ADME; details: percent remaining at 4 hr, 1 μM, 37° C.
Description: The whole blood stability of the exemplified compounds was determined by LC-MS/MS. The 96-Well Flexi-Tier™ Block (Analytical Sales & Services, Inc, Flanders, NJ) is used for the incubation plate containing 1.0 mL glass vials with 0.5 mL of blood per vial (pooled gender, human whole blood sourced from BIOIVT, Hicksville, NY or similar). Blood is pre-warmed in water bath to 37° C. for 30 minutes. 96-deep well analysis plate is prepared with the addition of 100 μL ultrapure water/well. 50 μL chilled ultrapure water/well is added to 96-deep well sample collection plate and covered with a sealing mat. 1 μL of 0.5 mM compound working solution (DMSO:water) is added to the blood in incubation plate to reach final concentrations of 1 μM, mixed by pipetting thoroughly and 50 μL is transferred 50 into the T=0 wells of the sample collection plate. Blood is allowed to sit in the water for 2 minutes and then 400 μL stop solution/well is added (acetonitrile containing an internal standard). The incubation plate is placed in the Incu-Shaker CO2 Mini incubator (Benchmark Scientific, Sayreville, NJ) at 37° C. with shaking at 150 rpm. At 1, 2 and 4-hr, the blood samples are mixed thoroughly by pipetting and 50 μL is transferred into the corresponding wells of the sample collection plate. Blood is allowed to sit in the water for 2 minutes and then 400 μL of stop solution/well is added. The collection plate is sealed and vortexed at 1700 rpm for 3 minutes (VX-2500 Multi-Tube Vortexer, VWR International, Radnor, PA), and samples are then centrifuged in the collection plate at 3500 rpm for 10 minutes (Allegra X-14R Centrifuge Beckman Coulter, Indianapolis, IN). 100 μL of supernatant/well is transferred from the sample collection plate into the corresponding wells of the analysis plate. The final plate is vortexed at 1700 rpm for 1 minute and analyze samples by LC-MS/MS. The peak area ratio of the 1, 2, and 4 hr samples relative to T=0 is used to determine the percent remaining. The natural log of the percent remaining versus time is used determine a slope to calculate the compounds half-life in blood (t1/2=0.693/slope).

Row | SMILES | IC50 (KRAS_G12C pERK; Homo sapiens, 4 h) [nM] | IC50 ([1]; Homo sapiens) [nM] | IC50 (KRAS G12C) [nM] | Human whole blood stability at 4 hr [2] | IC50 (KRAS_G12C pERK) [nM] | IC50 [1] [nM]
1 | COc1c(Cl)cccc1-c1c(C(F)(F)F)cc2c(nc(N3CC(C)(N(C)C)C3)c3nnn([C@H]4CCN(C(=O)/C=C/CF)[C@H](CC#N)C4)c32)c1F (single isomer, unassigned) [Example 3a] | ≤ 50 | 100 to 1000 | ≤ 50 | †† (WBS >70% but ≤90%) |  | 
2 | C[C@H](Oc1nc2c(F)c(-c3ccc(F)c4cccnc34)c(C(F)(F)F)cc2c2c1nnn2[C@H]1CCN(C(=O)/C=C/CF)[C@H](CC#N)C1)[C@@H]1CCCN1C (single isomer, unassigned) [Example 4a] | ≤ 50 | ≤ 50 | ≤ 50 | ††† (WBS >90%) |  | 
3 | C=CC(=O)N1CCC(n2nnc3c(O[C@@H](C)[C@@H]4CCCN4C)nc4c(F)c(-c5ccc(F)c6cccnc56)c(C(F)(F)F)cc4c32)CC1 (single isomer, unassigned) [Example 5a] | ≤ 50 | 50 to 100 | ≤ 50 | †† (WBS >70% but ≤90%) |  | 
4 | C=CC(=O)N1CCC(n2nnc3c(O[C@@H](C)[C@@H]4CCCN4C)nc4c(F)c(-c5cccc6cccc(C#N)c56)c(C)cc4c32)CC1 (single isomer, unassigned) [Example 11b] |  | ≤ 50 | ≤ 50 | †† (WBS >70% but ≤90%) | ≤ 50 | 
5 | C=CC(=O)N1CC[C@H](n2nnc3c(O[C@@H](C)[C@@H]4CCCN4C)nc4c(F)c(-c5cccc6cccc(C#N)c56)c(C)cc4c32)C[C@H]1C (single isomer, unassigned) [Example 14b] | ≤ 50 | ≤ 50 | ≤ 50 | ††† (WBS >90%) |  | 
6 | C=C(F)C(=O)N1CC[C@H](n2nnc3c(N4CC(N(C)CC)C4)nc4c(F)c(-c5c(C)c(C)cc6[nH]ncc56)c(C)cc4c32)C[C@H]1CC#N (single isomer, unassigned) [Example 15a] | ≤ 50 | 50 to 100 | ≤ 50 | ††† (WBS >90%) |  | 
7 | Cc1cc2c(nc(O[C@@H](C)[C@@H]3CCCN3C)c3nnn(C4CCN(C(=O)/C=C/CF)CC4)c32)c(F)c1-c1cccc2cccc(C#N)c12 (single isomer, unassigned) [Example 16b] |  | 50 to 100 | ≤ 50 | ††† (WBS >90%) | ≤ 50 | 
8 | COC/C=C/C(=O)N1CC[C@H](n2nnc3c(N4CC(C)(N(C)C)C4)nc4c(Cl)c(-c5ccc(F)c6cccnc56)c(Cl)cc4c32)C[C@H]1CC#N (single isomer, unassigned) [Example 18a] | ≤ 50 | 100 to 1000 | ≤ 50 | ††† (WBS >90%) |  | 
9 | CN(C)C1(C)CN(c2nc3c(Cl)c(-c4ccc(F)c5cccnc45)c(Cl)cc3c3c2nnn3[C@H]2CCN(C(=O)/C=C/CF)[C@H](CC#N)C2)C1 (single isomer, unassigned) [Example 19a] | ≤ 50 | ≤ 50 | ≤ 50 | †† (WBS >70% but ≤90%) |  | 
10 | COC/C=C/C(=O)N1CC[C@H](n2nnc3c(N4CC(C)(N(C)C)C4)nc4c(F)c(-c5ccc(F)c6cccnc56)c(C(F)(F)F)cc4c32)C[C@H]1CC#N (single isomer, unassigned) [Example 20] | ≤ 50 | 100 to 1000 | ≤ 50 | ††† (WBS >90%) |  | 
11 | COC/C=C/C(=O)N1CC[C@H](n2nnc3c(O[C@@H](C)[C@@H]4CCCN4C)nc4c(F)c(-c5cnc(C)c6ccccc56)c(C)cc4c32)C[C@H]1CC#N (single isomer, unassigned) [Example 26b] |  |  | ≤ 50 | †† (WBS >70% but ≤90%) | ≤ 50 | 50 to 100
12 | C=CC(=O)N1CC[C@H](n2nnc3c(O[C@@H](C)[C@@H]4CCCN4C)nc4c(F)c(-c5cccc6c5c(CC#N)nn6C)c(C)cc4c32)C[C@H]1C (single isomer, unassigned) [Example 28b] | ≤ 50 | 50 to 100 | ≤ 50 | †† (WBS >70% but ≤90%) |  | 
13 | C=C(F)C(=O)N1CC[C@H](n2nnc3c(N4CC(C)(N(C)CC)C4)nc4c(F)c(-c5c(C)c(F)cc6[nH]ncc56)c(C)cc4c32)C[C@H]1CC#N (single isomer, unassigned) [Example 29] | ≤ 50 | 100 to 1000 | ≤ 50 | ††† (WBS >90%) |  | 
